In brackets after ≈: the same amount, converted by molar mass.
Experiments:
Format in all cases: cell-based
E. Coli. Brig = assay: In vitro minimal inhibitory concentration, E. Coli. Brig; settings: Escherichia coli
Pseudomonas #28 = assay: In vitro minimal inhibitory concentration, Pseudomonas #28; settings: Pseudomonas #28; in vitro; read-out: Minimal Inhibitory Concentration
Klebs. Pneum. MGH 2 = assay: In vitro minimal inhibitory concentration, Klebs. Pneum. MGH 2
Strep. fec. MGH 2 = assay: In vitro minimal inhibitory concentration, Strep. fec. MGH 2
Staph S 18713 = assay: In vitro minimal inhibitory concentration, Staph S 18713
Pseudomonas UI 18 = assay: In vitro minimal inhibitory concentration, Pseudomonas UI 18; settings: UI18
Prot Vulg. = assay: In vitro minimal inhibitory concentration, Prot Vulg.
Entero Cloac. IM 11 = assay: In vitro minimal inhibitory concentration, Entero Cloac. IM 11
Pseudomonas BRK 12-4-4 = assay: In vitro minimal inhibitory concentration, Pseudomonas BRK 12-4-4; settings: BRK1244
Serr. Mar. IMM 16 = assay: In vitro minimal inhibitory concentration, Serr. Mar. IMM 16
E. Coli. Vogel = assay: In vitro minimal inhibitory concentration, E. Coli. Vogel; settings: Escherichia coli
Staph UC76 = assay: In vitro minimal inhibitory concentration, Staph UC76

## CC(=O)N1CCC[C@H]1C(=O)Nc1ccc(-c2ccc(C(=O)N[C@@H](C(=O)NC3C(=O)N4C(C(=O)O)=C(CSc5nnnn5C)CSC34)c3ccccc3)c(=O)[nH]2)cc1 (stereo partly drawn) [Example 2, N-[6-[4-(N-Acetyl-L-prolylamino)phenyl]-1,2-dihydro-2-oxonicotinyl]-7-[D-2-amino-2-phenylacetamido]-3-[[(1-methyl-1H-tetrazol-5-yl)thio]methyl]-3-cephem-4-carboxylic acid]
E. Coli. Brig
  MIC: 6.3 µg/mL (≈ 7.75 µM)
Pseudomonas #28
  MIC: 12.5 µg/mL (≈ 15.4 µM)
Klebs. Pneum. MGH 2
  MIC: 1.6 µg/mL (≈ 1.97 µM)
Strep. fec. MGH 2
  MIC: 25 µg/mL (≈ 30.8 µM)
Staph S 18713
  MIC: 3.1 µg/mL (≈ 3.81 µM)
Pseudomonas UI 18
  MIC: 12.5 µg/mL (≈ 15.4 µM)
Prot Vulg.
  MIC: 25 µg/mL (≈ 30.8 µM)
Entero Cloac. IM 11
  MIC: 6.3 µg/mL (≈ 7.75 µM)
Pseudomonas BRK 12-4-4
  MIC: 25 µg/mL (≈ 30.8 µM)
Serr. Mar. IMM 16
  MIC: 12.5 µg/mL (≈ 15.4 µM)
E. Coli. Vogel
  MIC: 1.6 µg/mL (≈ 1.97 µM)
Staph UC76
  MIC: 0.8 µg/mL (≈ 0.984 µM)

## CC(=O)N[C@@H](C)C(=O)Nc1ccc(-c2ccc(C(=O)N[C@@H](C(=O)NC3C(=O)N4C(C(=O)O)=C(COC(C)=O)CSC34)c3ccccc3)c(=O)[nH]2)cc1 (stereo partly drawn) [Example 5, N-[6-[4-(N-Acetyl-L-alanylamino)phenyl]-1,2-dihydro-2-oxonicotinyl]-6-[D-2-amino-2-phenylacetamido]-3-acetoxymethyl-3-cephem-4-carboxylic acid]
E. Coli. Brig
  MIC: 12.5 µg/mL (≈ 17.1 µM)
Pseudomonas #28
  MIC: 6.3 µg/mL (≈ 8.62 µM)
Klebs. Pneum. MGH 2
  MIC: 12.5 µg/mL (≈ 17.1 µM)
Strep. fec. MGH 2
  MIC: 25 µg/mL (≈ 34.2 µM)
Staph S 18713
  MIC: 1.6 µg/mL (≈ 2.19 µM)
Pseudomonas UI 18
  MIC: 6.3 µg/mL (≈ 8.62 µM)
Prot Vulg.
  MIC: 25 µg/mL (≈ 34.2 µM)
Entero Cloac. IM 11
  MIC: 12.5 µg/mL (≈ 17.1 µM)
Pseudomonas BRK 12-4-4
  MIC: 12.5 µg/mL (≈ 17.1 µM)
Serr. Mar. IMM 16
  MIC: 50 µg/mL (≈ 68.4 µM)
E. Coli. Vogel
  MIC: 1.6 µg/mL (≈ 2.19 µM)
Staph UC76
  MIC: 0.8 µg/mL (≈ 1.09 µM)

## CC(=O)OCC1=C(C(=O)O)N2C(=O)C(NC(=O)[C@H](NC(=O)c3ccc(-c4ccc(NC(=O)[C@@H]5CCC(=O)N5)cc4)[nH]c3=O)c3ccccc3)C2SC1 (stereo partly drawn) [Example 6, N-[6-[4-(L-Pyroglutamylamino)phenyl]-1,2-dihydro-2-oxonicotinyl]-7-[D-2-amino-2-phenylacetamido]-3-acetoxymethyl-3-cephem-4-carboxylic acid]
E. Coli. Brig
  MIC: 25 µg/mL (≈ 34.3 µM)
Pseudomonas #28
  MIC: 12.5 µg/mL (≈ 17.2 µM)
Klebs. Pneum. MGH 2
  MIC: 6.3 µg/mL (≈ 8.65 µM)
Strep. fec. MGH 2
  MIC: 25 µg/mL (≈ 34.3 µM)
Staph S 18713
  MIC: 3.1 µg/mL (≈ 4.25 µM)
Pseudomonas UI 18
  MIC: 6.3 µg/mL (≈ 8.65 µM)
Prot Vulg.
  MIC: 25 µg/mL (≈ 34.3 µM)
Entero Cloac. IM 11
  MIC: 12.5 µg/mL (≈ 17.2 µM)
Pseudomonas BRK 12-4-4
  MIC: 12.5 µg/mL (≈ 17.2 µM)
Serr. Mar. IMM 16
  MIC: 50 µg/mL (≈ 68.6 µM)
E. Coli. Vogel
  MIC: 3.1 µg/mL (≈ 4.25 µM)
Staph UC76
  MIC: 0.8 µg/mL (≈ 1.1 µM)

## Cn1nnnc1SCC1=C(C(=O)O)N2C(=O)C(NC(=O)[C@H](NC(=O)c3ccc(-c4ccc(NC(=O)[C@@H]5CCC(=O)N5)cc4)[nH]c3=O)c3ccccc3)C2SC1 (stereo partly drawn) [Example 7, N-[6-[4-(L-Pyroglutamylamino)phenyl]-1,2-dihydro-2-oxonicotinyl]-7-[D-2-amino-2-phenylacetamido]-3-[[(1-methyl-1H-tetrazol-5-yl)thio]methyl]-3-cephem-4-carboxylic acid]
E. Coli. Brig
  MIC: 3.1 µg/mL (≈ 3.95 µM)
Pseudomonas #28
  MIC: 6.3 µg/mL (≈ 8.03 µM)
Klebs. Pneum. MGH 2
  MIC: 1.6 µg/mL (≈ 2.04 µM)
Strep. fec. MGH 2
  MIC: 12.5 µg/mL (≈ 15.9 µM)
Staph S 18713
  MIC: 3.1 µg/mL (≈ 3.95 µM)
Pseudomonas UI 18
  MIC: 6.3 µg/mL (≈ 8.03 µM)
Prot Vulg.
  MIC: 12.5 µg/mL (≈ 15.9 µM)
Entero Cloac. IM 11
  MIC: 3.1 µg/mL (≈ 3.95 µM)
Pseudomonas BRK 12-4-4
  MIC: 6.3 µg/mL (≈ 8.03 µM)
Serr. Mar. IMM 16
  MIC: 12.5 µg/mL (≈ 15.9 µM)
E. Coli. Vogel
  MIC: 0.8 µg/mL (≈ 1.02 µM)
Staph UC76
  MIC: 0.4 µg/mL (≈ 0.51 µM)

## CC(=O)N[C@H](C)C(=O)Nc1ccc(-c2ccc(C(=O)N[C@@H](C(=O)NC3C(=O)N4C(C(=O)O)=C(COC(C)=O)CSC34)c3ccc(O)cc3)c(=O)[nH]2)cc1 (stereo partly drawn) [Example 8, N-[6-[4-(N-Acetyl-D-alanylamino)phenyl]-1,2-dihydro-2-oxonicotinyl]-7-[D-2-amino-2-(4-hydroxyphenyl)acetamido]-3-acetoxymethyl-3-cephem-4-carboxylic acid]
E. Coli. Brig
  MIC: 12.5 µg/mL (≈ 16.7 µM)
Pseudomonas #28
  MIC: 1.6 µg/mL (≈ 2.14 µM)
Klebs. Pneum. MGH 2
  MIC: 6.3 µg/mL (≈ 8.44 µM)
Strep. fec. MGH 2
  MIC: 12.5 µg/mL (≈ 16.7 µM)
Staph S 18713
  MIC: 6.3 µg/mL (≈ 8.44 µM)
Pseudomonas UI 18
  MIC: 3.1 µg/mL (≈ 4.15 µM)
Prot Vulg.
  MIC: 12.5 µg/mL (≈ 16.7 µM)
Entero Cloac. IM 11
  MIC: 12.5 µg/mL (≈ 16.7 µM)
Pseudomonas BRK 12-4-4
  MIC: 6.3 µg/mL (≈ 8.44 µM)
Serr. Mar. IMM 16
  MIC: 50 µg/mL (≈ 67 µM)
E. Coli. Vogel
  MIC: 3.1 µg/mL (≈ 4.15 µM)
Staph UC76
  MIC: 1.6 µg/mL (≈ 2.14 µM)

## CC(=O)N[C@@H](CCC(N)=O)C(=O)Nc1ccc(-c2ccc(C(=O)N[C@@H](C(=O)NC3C(=O)N4C(C(=O)O)=C(CSc5nnnn5C)CSC34)c3ccccc3)c(=O)[nH]2)cc1 (stereo partly drawn) [Example 9, N-[6-[4-(N-Acetyl-L-glutaminylamino)phenyl]-1,2-dihydro-2-oxonicotinyl]-7-(D-2-amino-2-phenylacetamido]-3-[[(1-methyl-1H-tetrazol-5-yl)thio]methyl]-3-cephem-4-carboxylic acid]
E. Coli. Brig
  MIC: 3.1 µg/mL (≈ 3.67 µM)
Pseudomonas #28
  MIC: 3.1 µg/mL (≈ 3.67 µM)
Klebs. Pneum. MGH 2
  MIC: 0.8 µg/mL (≈ 0.948 µM)
Strep. fec. MGH 2
  MIC: 25 µg/mL (≈ 29.6 µM)
Staph S 18713
  MIC: 3.1 µg/mL (≈ 3.67 µM)
Pseudomonas UI 18
  MIC: 6.3 µg/mL (≈ 7.47 µM)
Prot Vulg.
  MIC: 6.3 µg/mL (≈ 7.47 µM)
Entero Cloac. IM 11
  MIC: 1.6 µg/mL (≈ 1.9 µM)
Pseudomonas BRK 12-4-4
  MIC: 6.3 µg/mL (≈ 7.47 µM)
Serr. Mar. IMM 16
  MIC: 12.5 µg/mL (≈ 14.8 µM)
E. Coli. Vogel
  MIC: 0.4 µg/mL (≈ 0.474 µM)
Staph UC76
  MIC: 0.4 µg/mL (≈ 0.474 µM)

## CC(=O)NC(C)(C)C(=O)Nc1ccc(-c2ccc(C(=O)N[C@@H](C(=O)NC3C(=O)N4C(C(=O)O)=C(COC(C)=O)CSC34)c3ccccc3)c(=O)[nH]2)cc1 (stereo partly drawn) [Example 11, N-[6-[4-(N-Acetyl-alpha-aminoisobutyrylamino)phenyl]-1,2-dihydro-2-oxonicotinyl]-7-[D-2-amino-2-phenylacetamido]-3-acetoxymethyl-3-cephem-4-carboxylicacid]
E. Coli. Brig
  MIC: 12.5 µg/mL (≈ 16.8 µM)
Pseudomonas #28
  MIC: 3.1 µg/mL (≈ 4.16 µM)
Klebs. Pneum. MGH 2
  MIC: 12.5 µg/mL (≈ 16.8 µM)
Strep. fec. MGH 2
  MIC: 25 µg/mL (≈ 33.6 µM)
Staph S 18713
  MIC: 3.1 µg/mL (≈ 4.16 µM)
Pseudomonas UI 18
  MIC: 6.3 µg/mL (≈ 8.46 µM)
Prot Vulg.
  MIC: 12.5 µg/mL (≈ 16.8 µM)
Entero Cloac. IM 11
  MIC: 12.5 µg/mL (≈ 16.8 µM)
Pseudomonas BRK 12-4-4
  MIC: 6.3 µg/mL (≈ 8.46 µM)
Serr. Mar. IMM 16
  MIC: 50 µg/mL (≈ 67.1 µM)
E. Coli. Vogel
  MIC: 3.1 µg/mL (≈ 4.16 µM)
Staph UC76
  MIC: 0.4 µg/mL (≈ 0.537 µM)

## CC(=O)OCC1=C(C(=O)O)N2C(=O)C(NC(=O)[C@H](NC(=O)c3ccc(-c4ccc(NC(=O)[C@@H]5CCCN5C(C)=O)cc4)[nH]c3=O)c3ccccc3)C2SC1 (stereo partly drawn) [Example 12, N-[6-[4-(N-Acetyl-L-prolylamino)phenyl]-1,2-dihydro-2-oxonicotinyl]-7-[D-2-amino-2-phenylacetamido]-3-acetoxymethyl-3-cephem-4-carboxylic acid]
E. Coli. Brig
  MIC: 6.3 µg/mL (≈ 8.32 µM)
Pseudomonas #28
  MIC: 6.3 µg/mL (≈ 8.32 µM)
Klebs. Pneum. MGH 2
  MIC: 6.3 µg/mL (≈ 8.32 µM)
Strep. fec. MGH 2
  MIC: 12.5 µg/mL (≈ 16.5 µM)
Staph S 18713
  MIC: 3.1 µg/mL (≈ 4.1 µM)
Pseudomonas UI 18
  MIC: 6.3 µg/mL (≈ 8.32 µM)
Prot Vulg.
  MIC: 25 µg/mL (≈ 33 µM)
Entero Cloac. IM 11
  MIC: 12.5 µg/mL (≈ 16.5 µM)
Pseudomonas BRK 12-4-4
  MIC: 12.5 µg/mL (≈ 16.5 µM)
Serr. Mar. IMM 16
  MIC: 50 µg/mL (≈ 66.1 µM)
E. Coli. Vogel
  MIC: 3.1 µg/mL (≈ 4.1 µM)
Staph UC76
  MIC: 0.8 µg/mL (≈ 1.06 µM)

## CC(=O)N[C@H](CC(N)=O)C(=O)Nc1ccc(-c2ccc(C(=O)N[C@@H](C(=O)NC3C(=O)N4C(C(=O)O)=C(COC(C)=O)CSC34)c3ccccc3)c(=O)[nH]2)cc1 (stereo partly drawn) [Example 13, N-[6-[4-(N-Acetyl-D-aspariginylamino)phenyl]-1,2-dihydro-2-oxonicotinyl]-7-[D-2-amino-2-phenylacetamido]-3-acetoxymethyl-3-cephem-4-carboxylic acid]
E. Coli. Brig
  MIC: 12.5 µg/mL (≈ 16.2 µM)
Pseudomonas #28
  MIC: 12.5 µg/mL (≈ 16.2 µM)
Klebs. Pneum. MGH 2
  MIC: 6.3 µg/mL (≈ 8.14 µM)
Strep. fec. MGH 2
  MIC: 25 µg/mL (≈ 32.3 µM)
Staph S 18713
  MIC: 6.3 µg/mL (≈ 8.14 µM)
Pseudomonas UI 18
  MIC: 6.3 µg/mL (≈ 8.14 µM)
Prot Vulg.
  MIC: 25 µg/mL (≈ 32.3 µM)
Entero Cloac. IM 11
  MIC: 12.5 µg/mL (≈ 16.2 µM)
Pseudomonas BRK 12-4-4
  MIC: 12.5 µg/mL (≈ 16.2 µM)
Serr. Mar. IMM 16
  MIC: > 50 µg/mL
E. Coli. Vogel
  MIC: 3.1 µg/mL (≈ 4.01 µM)
Staph UC76
  MIC: 0.8 µg/mL (≈ 1.03 µM)

## CC(=O)N[C@@H](CCC(N)=O)C(=O)Nc1ccc(-c2ccc(C(=O)N[C@@H](C(=O)NC3C(=O)N4C(C(=O)O)=C(COC(C)=O)CSC34)c3ccccc3)c(=O)[nH]2)cc1 (stereo partly drawn) [Example 14, N-[6-[4-(N-Acetyl-L-glutaminylamino)phenyl]-1,2-dihydro-2-oxonicotinyl]-7-[D-2-amino-2-phenylacetamido]-3-acetoxymethyl-3-cephem-4-carboxylic acid]
E. Coli. Brig
  MIC: 6.3 µg/mL (≈ 8 µM)
Pseudomonas #28
  MIC: 3.1 µg/mL (≈ 3.93 µM)
Klebs. Pneum. MGH 2
  MIC: 3.1 µg/mL (≈ 3.93 µM)
Strep. fec. MGH 2
  MIC: 12.5 µg/mL (≈ 15.9 µM)
Staph S 18713
  MIC: 1.6 µg/mL (≈ 2.03 µM)
Pseudomonas UI 18
  MIC: 6.3 µg/mL (≈ 8 µM)
Prot Vulg.
  MIC: 25 µg/mL (≈ 31.7 µM)
Entero Cloac. IM 11
  MIC: 12.5 µg/mL (≈ 15.9 µM)
Pseudomonas BRK 12-4-4
  MIC: 6.3 µg/mL (≈ 8 µM)
Serr. Mar. IMM 16
  MIC: 50 µg/mL (≈ 63.5 µM)
E. Coli. Vogel
  MIC: 1.6 µg/mL (≈ 2.03 µM)
Staph UC76
  MIC: 0.8 µg/mL (≈ 1.02 µM)

— patent publication US4311698A, “Aminoacid derivatives of cephalosporin compounds” (priority 1980, dated 1982)
